Measurements published in US9416115B2, “Fused heterocyclic compounds as ion channel modulators” (Gilead Sciences, Inc., priority 2013, dated 2016).
Like-named read-outs stand apart in the source and are kept apart here.

Assays:
Assay type in all cases: cell-based
[1] = biological target: T1, wild-type human cardiac sodium channel, hNav1.5 (Homo sapiens, UniProt Q14524); experiment: Late INa screening assay (QPatch whole cell patch clamp, Tefluthrin-induced late current); conditions: HEK293 hNav1.5, percent block of late INa
T1 sequence (Q14524 whole entry): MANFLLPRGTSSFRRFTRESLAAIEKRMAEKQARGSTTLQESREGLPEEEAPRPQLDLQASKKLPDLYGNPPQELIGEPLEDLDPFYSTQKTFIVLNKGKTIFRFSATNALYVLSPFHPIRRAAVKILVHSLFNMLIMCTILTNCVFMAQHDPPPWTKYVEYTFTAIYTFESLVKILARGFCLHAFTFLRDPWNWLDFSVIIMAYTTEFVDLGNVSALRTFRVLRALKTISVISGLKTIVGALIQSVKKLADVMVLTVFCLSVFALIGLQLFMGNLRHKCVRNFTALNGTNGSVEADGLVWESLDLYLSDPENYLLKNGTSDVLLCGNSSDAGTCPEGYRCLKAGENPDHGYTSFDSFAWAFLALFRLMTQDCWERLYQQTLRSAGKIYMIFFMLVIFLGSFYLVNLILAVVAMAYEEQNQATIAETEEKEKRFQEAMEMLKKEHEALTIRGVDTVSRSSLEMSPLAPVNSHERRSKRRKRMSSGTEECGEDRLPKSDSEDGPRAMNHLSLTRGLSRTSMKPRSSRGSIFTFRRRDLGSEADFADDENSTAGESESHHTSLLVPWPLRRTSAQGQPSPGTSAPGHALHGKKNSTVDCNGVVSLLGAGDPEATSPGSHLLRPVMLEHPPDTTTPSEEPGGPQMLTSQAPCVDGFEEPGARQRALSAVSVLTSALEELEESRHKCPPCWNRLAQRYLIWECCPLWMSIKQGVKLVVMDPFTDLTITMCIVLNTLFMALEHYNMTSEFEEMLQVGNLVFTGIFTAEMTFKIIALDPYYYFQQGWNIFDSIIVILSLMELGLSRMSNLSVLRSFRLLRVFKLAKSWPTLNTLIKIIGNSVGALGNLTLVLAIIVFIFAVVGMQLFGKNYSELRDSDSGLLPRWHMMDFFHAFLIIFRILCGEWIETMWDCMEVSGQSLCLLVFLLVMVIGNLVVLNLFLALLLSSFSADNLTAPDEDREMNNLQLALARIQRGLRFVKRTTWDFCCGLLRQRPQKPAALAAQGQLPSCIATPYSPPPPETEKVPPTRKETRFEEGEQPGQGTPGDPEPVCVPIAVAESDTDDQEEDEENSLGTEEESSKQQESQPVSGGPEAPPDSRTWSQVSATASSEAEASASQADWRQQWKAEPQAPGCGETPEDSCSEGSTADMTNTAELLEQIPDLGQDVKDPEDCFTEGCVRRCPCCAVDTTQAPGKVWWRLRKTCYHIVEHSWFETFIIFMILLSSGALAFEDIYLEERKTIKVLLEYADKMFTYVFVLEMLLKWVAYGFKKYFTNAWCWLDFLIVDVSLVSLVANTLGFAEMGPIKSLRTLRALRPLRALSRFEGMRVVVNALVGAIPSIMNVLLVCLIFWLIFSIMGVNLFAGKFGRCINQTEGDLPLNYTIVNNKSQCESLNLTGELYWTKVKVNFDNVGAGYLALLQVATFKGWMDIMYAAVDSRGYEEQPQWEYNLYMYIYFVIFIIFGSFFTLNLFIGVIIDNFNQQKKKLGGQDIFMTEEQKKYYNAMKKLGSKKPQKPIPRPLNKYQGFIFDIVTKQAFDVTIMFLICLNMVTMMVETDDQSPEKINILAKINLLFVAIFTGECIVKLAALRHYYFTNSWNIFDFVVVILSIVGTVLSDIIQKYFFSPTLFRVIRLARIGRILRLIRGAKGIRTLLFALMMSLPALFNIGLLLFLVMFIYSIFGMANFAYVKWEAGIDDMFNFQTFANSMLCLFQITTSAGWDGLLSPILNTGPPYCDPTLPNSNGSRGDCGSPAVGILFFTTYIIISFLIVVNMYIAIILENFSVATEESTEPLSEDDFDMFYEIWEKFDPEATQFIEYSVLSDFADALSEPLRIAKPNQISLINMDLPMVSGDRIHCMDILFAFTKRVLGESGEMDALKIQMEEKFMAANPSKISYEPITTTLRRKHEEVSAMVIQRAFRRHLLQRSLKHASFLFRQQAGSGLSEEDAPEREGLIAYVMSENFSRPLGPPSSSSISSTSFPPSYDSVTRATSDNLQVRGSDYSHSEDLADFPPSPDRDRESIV
Procedure: (§1) The cardiac late sodium current (Late INa) and peak sodium current (Peak INa) assays are performed on an automated electrophysiology platform, QPatch 16X or QPatch HT (Sophion Bioscience, Copenhagen, Denmark) using the whole cell patch clamp technique to measure currents through the cell membrane. The assay uses an HEK293 (human embryonic kidney) cell line heterologously expressing the wild-type human cardiac sodium channel, hNav1.5, purchased from Millipore (Billerica, Mass.). No beta subunits were coexpressed with the Na channel alpha subunit. Cells are maintained with standard tissue culture procedures and stable channel expression is maintained with 400 μg/mL Geneticin in the culture medium. Experiments are carried out at 23-25° C.
(§2) For both the Late INa and Peak INa assays, series resistance compensation is set to 100% and series resistance and whole-cell compensation are performed automatically. Currents are digitized at 25 kHz and low-pass filtered at 5 kHz and stored in the Sophion Bioscience Oracle database (Sophion Bioscience, Copenhagen, Denmark). Analysis is performed using QPatch Assay software and data are compiled in Excel 2010 (Microsoft, Seattle, Wash., U.S.A.).
(§3) Compound stocks are routinely made by the Gilead Sample Bank in vials to 10 mM in dimethyl sulfoxide (DMSO). In some cases, when compounds are not soluble in DMSO, they are made in 100% ethanol. Stocks are sonicated as necessary. The extracellular solution for screening Late INa is composed of: 140 mM NaCl, 4 mM KCl, 1.8 mM CaCl2, 1 mM MgCl2, 10 mM HEPES and 10 mM Dextrose with pH adjusted to 7.35 using NaOH. The intracellular solution contains: 105 mM CsF, 20 mM CsCl, 10NaF, 2 mM EGTA, 10 mM HEPES and 10 mM Dextrose with pH adjusted to 7.35 with CsOH. Compounds are diluted in extracellular solution using a MicroLab Nimbus (Hamilton Robotics, Reno, Nev.) to between 0.3 and 3 μM in glass vials and transferred to glass well plates before robotic addition to the cells. The 0 mM Na extracellular solution (0Na-ECF) used at the end of each experiment for the Late INa and Peak INa assays to measure baseline current contains: 140 Choline-Cl; 4 mM KCl, 1.8 mM CaCl2; 1 mM MgCl2; 10 mM HEPES and 10 mM Dextrose with pH was adjusted to 7.35 with CsOH.
For the Late INa assay, sodium channels are activated every 10 seconds (0.1 Hz) by depolarizing the cell membrane to −20 mV for 250 milliseconds (ms) from a holding potential of −120 mV.
Compounds were tested to determine their activity in blocking the late sodium current. Late INa was generated by adding 10 μM Tefluthrin (pyrethroid) to the extracellular solution. For the purposes of the screening, Late INa is defined as the mean current between […] during the voltage step to −20 mV. After establishing the whole cell recording configuration, Late INa activator is added to each well 4 times over a 15 minute period so that the late component of the Na current reaches a stable value. Compounds were then added (typically at 0.3 or 1 μM), in the presence of the Late Na^+ activator, with 3 additions over the course of 5 minutes. Measurements were made at the end of exposure to the third compound addition and values were normalized to the current level when all Na^+ was removed from the extracellular solution after two additions of 0Na-ECF.
Results are reported as percent block of late INa and results were analyzed by incorporating rundown correction for the Late INa.

[2] = biological target: T1, wild-type human cardiac sodium channel, hNav1.5; experiment: Peak INa screening assay (tonic block and use-dependent block)
Procedure: as §1, §2, §3
Compounds were evaluated for their effect Nav1.5 Peak INa. It is contemplated that the compounds of Formula I avoid significant block of peak INa. Since the peak INa in the cells used herein can be very large, introducing artifacts in the recording, the concentration of Na^+ in the bath can be reduced to 40 mM by isosmotic replacement of Na^+ with Choline (see below).
Tonic Block (TB) of Peak INa was measured using a voltage step to −20 mV from a holding potential of −100 mV at a low stimulation frequency of 0.1 Hz. Use-Dependent Block (UDB) of Peak INa was measured during pulse number 50 of a pulse train (−20 mV, 20 ms, 50 pulses, 3 Hz) from a holding potential of −100 mV.
The extracellular solution for screening Peak INa is composed of: 40 mM NaCl, 100 mM Choline-Cl, 4 mM KCl, 1.8 mM CaCl2, 1 mM MgCl2 10 mM HEPES and 10 mM Dextrose with pH adjusted to 7.35 using NaOH. The intracellular solution used for the Peak INa assay is the same as outlined for the Late INa assay (see above).
After establishing the whole cell recording configuration, channels were stimulated to open with low frequency (0.1 Hz) so that the recording can be monitored and the extent to which the recording has stabilized can be assessed.
The test compound is then applied at 1 or 3 μM and was added 2 times at 60 second intervals. After the second compound addition, a 200 second wait period was imposed to allow for equilibration. Voltage protocols for TB and UDB are were performed in the absence and presence of compound and TB and UDB are calculated with respect to the compound free condition. Both TB and UDB were analyzed by incorporating rundown correction for the peak INa.

hNav1.1 (SCN1A) = hNav1.1 (SCN1A) (Homo sapiens, UniProt P35498); experiment: Use-dependent inhibition of the CNS Nav1.1 sodium channel; conditions: use-dependent block, 25 Hz, pulse 20, read-out: Nav1.1 UDB 25 Hz 10 uM
Procedure: HEK-293 cells stably expressing wild-type (WT) hNav1.1 (SCN1A, NCBI# AB09354) were obtained from Millipore (Cat. # CYL3009) were used to record INa. Cells are maintained with standard tissue culture procedures and stable channel expression is maintained with 400 ug/mL G418 in the culture medium. Unless otherwise noted, all reagents are purchased from Sigma-Aldrich (St Louis, Mo., U.S.A.).
Assays measuring Use-Dependent Block (UDB) of Nav1.2 are performed on an automated electrophysiology platform, QPatch 16X or QPatch HT (Sophion Bioscience, Copenhagen, Denmark), using the whole cell patch clamp technique to measure currents through the cell membrane. Series resistance compensation is set to 100% and series resistance and whole-cell compensation are performed automatically. Currents stored in the Sophion Bioscience Oracle database (Sophion Bioscience, Copenhagen, Denmark). Analysis is performed using QPatch Assay software and data are compiled in Excel 2010 (Microsoft, Seattle, Wash., U.S.A.).
The internal (pipette) solution consists of (in mM) 105 CsF, 10 NaF, 20 CsCl, 2 EGTA, 10 HEPES, 10 Dextrose with a pH of 7.35 and osmolarity of 300 mOsmol/kg. The external (bath) solution contains in (mM): 145 NaCl, 4 KCl, 1.8 CaCl2, 1 MgCl2, 10 dextrose, 10 HEPES, with a pH of 7.35 and osmolarity of 310 mOsmol/kg. Experiments are carried out at 23-25° C.
Compound stocks are routinely made by the Gilead Sample Bank in vials to 10 mM in dimethyl sulfoxide (DMSO). In some cases, when compounds are not soluble in DMSO, they are made in 100% ethanol. Stocks are sonicated as necessary. […]
Cells are allowed to stabilize for 10 min after establishment of the whole-cell configuration before current is measured. The test compound is applied 2 times at 60 second intervals. After the second compound addition, a 200 second wait period was imposed to allow for equilibration. Leak currents are subtracted by using an online P/4 procedure and all currents are low-pass Bessel filtered at 5 kHz and digitized at […].
Use-dependent block of Nav1.2 peak current is measured during pulse number 20 of a voltage pulse train (0 mV, 20 ms, 20 pulses, 25 Hz) from a holding potential of −120 mV. Currents are normalized to the peak current recorded in response to the first pulse in each frequency train. The voltage protocol for UDB was performed in the absence and presence of compound and percentage inhibition was calculated with respect to the compound free condition. Results are presented as mean percentage inhibition and data analysis is performed using QPatch Assay Software 4.0, and Excel 2002 (Microsoft, Seattle, Wash., U.S.A.).

[3] = tonic block of Peak INa, 0.1 Hz, holding -100 mV, read-out: Peak TB 3 uM
[4] = use-dependent block of Peak INa, 3 Hz, pulse 50, read-out: Peak UDB 3 Hz 3 uM

SMILES | inhibition at 1 µM [1] | inhibition at 3 µM [2, 3] | inhibition at 3 µM [2, 4] | inhibition at 10 µM (hNav1.1 (SCN1A)) | inhibition at 0.3 µM [1]
O=C1CC(COc2noc3ccc(-c4ccc(OC(F)(F)F)cc4)cc23)CN1 (stereo not drawn) [Example 46, 4-(((5-(4-(trifluoromethoxy)phenyl)benzo[d]isoxazol-3-yl)oxy)methyl)pyrrolidin-2-one] | 36.8% | 23.7% | 13.9% | 78.4% | –
FC(F)(F)Oc1ccc(-c2ccc3onc(OCCn4ccnc4)c3c2)cc1 [Example 55, 3-(2-(1H-imidazol-1-yl)ethoxy)-5-(4-(trifluoromethoxy)phenyl)benzo[d]isoxazole] | 59.9% | 15.1% | 5.13% | 79.8% | 45.4%
CN1CC(COc2noc3ccc(-c4ccc(OC(F)(F)F)cc4)cc23)CC1=O (stereo not drawn) [Example 56, 1-methyl-4-(((5-(4-(trifluoromethoxy)phenyl)benzo[d]isoxazol-3-yl)oxy)methyl)pyrrolidin-2-one] | 57.8% | 30.4% | 31.4% | 83.6% | 16.1%
Cc1nccn1CCOc1noc2ccc(-c3ccc(OC(F)(F)F)cc3)cc12 [Example 57, 3-(2-(2-methyl-1H-imidazol-1-yl)ethoxy)-5-(4-(trifluoromethoxy)phenyl)benzo[d]isoxazole] | 57.3% | 22.1% | 37.1% | 82.5% | 17%
Cc1cc(-c2ccc(OC(F)(F)F)cc2)cc2c(OCCN3CCCC3=O)noc12 [Example 88, 1-(2-((7-methyl-5-(4-(trifluoromethoxy)phenyl)benzo[d]isoxazol-3-yl)oxy)ethyl)pyrrolidin-2-one] | 47.7% | 20.8% | 19.5% | 66.7% | –
FC(F)(F)Oc1ccc(-c2ccc3onc(OC[C@@H]4CCCN4)c3c2)cc1 [Example 108, (S)-3-(pyrrolidin-2-ylmethoxy)-5-(4-(trifluoromethoxy)phenyl)benzo[d]isoxazole] | 83.5% | 62.6% | 69.3% | 89.2% | 30.1%
FC(F)(F)Oc1ccc(-c2ccc3onc(Oc4ccccn4)c3c2)cc1 [Example 125, 3-(pyridin-2-yloxy)-5-(4-(trifluoromethoxy)phenyl)benzo[d]isoxazole] | 41.8% | – | – | < 5% | –
Cc1cccc(CNc2noc3ccc(-c4ccc(OC(F)(F)F)cc4)cc23)n1 [Example 129, N-((6-methylpyridin-2-yl)methyl)-5-(4-(trifluoromethoxy)phenyl)benzo[d]isoxazol-3-amine] | 67.5% | – | – | 33.5% | 34.3%
